# Measurements taken from US20260364089A1, “PYRIDOPYRIMIDINE KRAS INHIBITORS” (Treeline Biosciences, Inc., priority 2022, published 2026).
# Molecular target: T1, KRas G12V (Homo sapiens, UniProt P01116, G12V)
# T1 construct: Biotinylated KRas G12V (aa 1-169) loaded with GDP nucleotide; biotin (biotinylated)
# Test: SOS1-Catalyzed Nucleotide Exchange Assay, KRas G12V (Method 2)
# Assay type: biochemical
# Settings: Method 2, A; 5 nM KRas G12V (aa 1-169, GDP-loaded), 50 nM SOS1; read-out: KRas G12V IC50 (nM) (Method 2, A)
# Description: KRas G12V [Method 2]: Compounds were pre-dispensed via Echo liquid handling (acoustic, touch-free) to generate assay ready plates (ARP). More precisely, a 10-point concentration response curve for each compound was prepared with appropriate top concentration (1 μM, 10 μM, 100 μM). Biotinylated KRas G12V (aa 1-169) loaded with GDP nucleotide and Streptavidin-Europium (SA-EU, Columbia Biosciences) were preincubated in assay buffer (20 mM HEPES pH 7.4, 150 mM NaCl, 5 mM MgCl2, 1 mM DTT, 0.01% Brij-35, 0.3 mg/mL BSA) on ice for 30 min. Separately SOS1 (aa 546-1049) and EDA-GTP-DY647P1 (Jena Bioscience) were preincubated in assay buffer on ice for 30 min. After 30 minutes of incubation for the assay components, 5 μL buffer and 5 μL of KRas G12V-SA-Eu were added to each well of the ARP. After a further 30 min, 5 μL of SOS1-EDA-GTP-D467P1 was added to start the nucleotide exchange reaction. Final concentration in the assay were 5 nM KRas G12V, 50 nM SOS1 (aa 564-1049). The reaction was allowed to proceed for 60-90 minutes after which the plate was read on a plate reader. After normalization of the raw data, the data was fit to a four-parameter logistic curve.
# T1 sequence (P01116 1-169 G12V): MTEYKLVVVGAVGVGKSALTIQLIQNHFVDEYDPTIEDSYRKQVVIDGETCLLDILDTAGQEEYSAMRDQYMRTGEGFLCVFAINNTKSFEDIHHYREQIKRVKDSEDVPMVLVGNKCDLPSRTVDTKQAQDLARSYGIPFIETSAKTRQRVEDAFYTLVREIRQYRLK
row,IC50 [nM],SMILES
1,100 to 1000,"Nc1cc2c3c(c(F)ccc3c1)CCCC(=O)NCCC1CCCN(C1)c1nc(OC[C@@]34CCCN3C[C@H](F)C4)nc3c(F)c-2ccc13 (stereo partly drawn) [Compound 190a, 3^3-amino-2^8,3^7-difluoro-2^2-(((2R,7aS)-2-fluorotetrahydro-1H-pyrrolizin-7a(5H)-yl)methoxy)-8-aza-2(4,7)-quinazolina-1(1,3)-piperidina-3(1,8)-naphthalenacyclodecaphan-7-one]"
2,≤ 100,"Nc1cc(Cl)c2c(c1)-c1ncc3c(nc(OC[C@@]45CCCN4C[C@H](F)C5)nc3c1F)N1CCCC(CCNC(=O)CCCC2)C1 (stereo partly drawn) [Compound 154a, 3^5-amino-3^3-chloro-2^8-fluoro-2^2-(((2R,7aS)-2-fluorotetrahydro-1H-pyrrolizin-7a(5H)-yl)methoxy)-9-aza-2(4,7)-pyrido[4,3-d]pyrimidina-1(1,3)-piperidina-3(1,2)-benzenacycloundecaphan-8-one]"
3,≤ 100,"Nc1cc(Cl)c2c(c1)-c1ncc3c(nc(OC[C@@]45CCCN4C[C@H](F)C5)nc3c1F)N1CCCC(O)(CCNC(=O)CCCC2)C1 (stereo partly drawn) [Compound 156a, 3^5-amino-3^3-chloro-2^8-fluoro-2^2-(((2R,7aS)-2-fluorotetrahydro-1H-pyrrolizin-7a(5H)-yl)methoxy)-13-hydroxy-9-aza-2(4,7)-pyrido[4,3-d]pyrimidina-1(1,3)-piperidina-3(1,2)-benzenacycloundecaphan-8-one]"
4,100 to 1000,"Nc1cc2c3c(c(F)ccc3c1)CCCC(=O)NCCC1CCCN(C1)c1nc(OC[C@@]34CCCN3C[C@H](F)C4)nc3c(F)c-2ncc13 (stereo partly drawn) [Compound 189a, 3^3-amino-2^8,3^7-difluoro-2^2-(((2R,7aS)-2-fluorotetrahydro-1H-pyrrolizin-7a(5H)-yl)methoxy)-8-aza-2(4,7)-pyrido[4,3-d]pyrimidina-1(1,3)-piperidina-3(1,8)-naphthalenacyclodecaphan-7-one]"
5,≤ 100,"O=C1CCCCc2c(Cl)cc(O)cc2-c2ncc3c(nc(OC[C@@]45CCCN4C[C@H](F)C5)nc3c2F)N2CCCC(O)(CCN1)C2 (single isomer, unassigned) [Compound 140b]"

# Same assay, conditions: Method 2, B; 5 nM KRas G12V (aa 1-169, GDP-loaded), 50 nM SOS1; read-out: KRas G12V IC50 (nM) (Method 2, B)
row,IC50 [nM],SMILES
1,100 to 1000,"Nc1cc2c(c(Cl)c1F)CCCCC(=O)NCC1COCCN(C1)c1nc(OC[C@@]34CCCN3C[C@H](F)C4)nc3c(F)c-2ncc13 (stereo partly drawn) [Compound 182a, 3^5-amino-3^3-chloro-2^8,3^4-difluoro-2^2-(((2R,7aS)-2-fluorotetrahydro-1H-pyrrolizin-7a(5H)-yl)methoxy)-9-aza-1(4,6)-oxazepana-2(4,7)-pyrido[4,3-d]pyrimidina-3(1,2)-benzenacyclodecaphan-8-one]"
2,1000 to 10000,"Nc1cc2c(cc1F)CCCCC(=O)NCCC1CCCN(C1)c1nc(OC[C@@]34CCCN3C[C@H](F)C4)nc3c(F)c-2ccc13 (stereo partly drawn) [Compound 163a, 3^5-amino-2^8,3^4-difluoro-2^2-(((2R,7aS)-2-fluorotetrahydro-1H-pyrrolizin-7a(5H)-yl)methoxy)-9-aza-2(4,7)-quinazolina-1(1,3)-piperidina-3(1,2)-benzenacycloundecaphan-8-one]"
3,100 to 1000,"Nc1cc2c3c(c(F)ccc3c1)CCCC(=O)NCCC1CCCN(C1)c1nc(OC[C@@]34CCCN3C[C@H](F)C4)nc3c(F)c-2ccc13 (stereo partly drawn) [Compound 190a, 3^3-amino-2^8,3^7-difluoro-2^2-(((2R,7aS)-2-fluorotetrahydro-1H-pyrrolizin-7a(5H)-yl)methoxy)-8-aza-2(4,7)-quinazolina-1(1,3)-piperidina-3(1,8)-naphthalenacyclodecaphan-7-one]"
4,≤ 100,"O=C1CCCCc2ccc3[nH]ncc3c2-c2ncc3c(nc(OC[C@@]45CCCN4C[C@H](F)C5)nc3c2F)N2CCCC(CCN1)C2 (stereo partly drawn) [Compound 167a, 2^8-fluoro-2^2-(((2R,7aS)-2-fluorotetrahydro-1H-pyrrolizin-7a(5H)-yl)methoxy)-1^1H-6-aza-2(7,4)-pyrido[4,3-d]pyrimidina-1(4,5)-indazola-3(1,3)-piperidinacycloundecaphan-7-one]"
5,100 to 1000,"Nc1cc2c(c(Cl)c1F)CCCCC(=O)NCC1COCCN(C1)c1nc(OC[C@@]34CCCN3C[C@H](F)C4)nc3c(F)c-2c(F)cc13 (stereo partly drawn) [Compound 184a, 3^5-amino-3^3-chloro-2^6,2^8,3^4-trifluoro-2^2-(((2R,7aS)-2-fluorotetrahydro-1H-pyrrolizin-7a(5H)-yl)methoxy)-9-aza-1(4,6)-oxazepana-2(4,7)-quinazolina-3(1,2)-benzenacyclodecaphan-8-one]"
6,100 to 1000,"Nc1cc2c(c(Cl)c1F)CCCCC(=O)NCCC1(O)CCCN(C1)c1nc(OC[C@@]34CCCN3C[C@H](F)C4)nc3c(F)c-2c(F)cc13 (stereo partly drawn) [Compound 183a, 3^5-amino-3^3-chloro-2^6,2^8,3^4-trifluoro-2^2-(((2R,7aS)-2-fluorotetrahydro-1H-pyrrolizin-7a(5H)-yl)methoxy)-1^3-hydroxy-9-aza-2(4,7)-quinazolina-1(1,3)-piperidina-3(1,2)-benzenacycloundecaphan-8-one]"
7,≤ 100,"O=C1CCCCc2c(Cl)cc3[nH]ncc3c2-c2ccc3c(nc(OC[C@@]45CCCN4C[C@H](F)C5)nc3c2F)N2CCOCC(CN1)C2 (stereo partly drawn) [Compound 198a, 3^6-chloro-2^8-fluoro-2^2-(((2R,7aS)-2-fluorotetrahydro-1H-pyrrolizin-7a(5H)-yl)methoxy)-3^1H-9-aza-1(4,6)-oxazepana-2(4,7)-quinazolina-3(4,5)-indazolacyclodecaphan-8-one]"
8,100 to 1000,"Nc1cc2c(c(Cl)c1F)CCCCC(=O)NCCC1COCCN(C1)c1nc(OC[C@@]34CCCN3C[C@H](F)C4)nc3c(F)c-2ncc13 (stereo partly drawn) [Compound 185a, 3^5-amino-3^3-chloro-2^8,3^4-difluoro-2^2-(((2R,7aS)-2-fluorotetrahydro-1H-pyrrolizin-7a(5H)-yl)methoxy)-9-aza-1(4,6)-oxazepana-2(4,7)-pyrido[4,3-d]pyrimidina-3(1,2)-benzenacycloundecaphan-8-one]"
9,≤ 100,"O=C1CCCCc2c(Cl)cc3[nH]ncc3c2-c2ncc3c(nc(OC[C@@]45CCCN4C[C@H](F)C5)nc3c2F)N2CCCC(CCN1)C2 (stereo partly drawn) [Compound 196a, 1^6-chloro-2^8-fluoro-2^2-(((2R,7aS)-2-fluorotetrahydro-1H-pyrrolizin-7a(5H)-yl)methoxy)-1^1H-6-aza-2(7,4)-pyrido[4,3-d]pyrimidina-1(4,5)-indazola-3(1,3)-piperidinacycloundecaphan-7-one]"
10,≤ 100,"CN(C)CC1(COc2nc3c4ccc(c(F)c4n2)-c2c(c(Cl)cc4[nH]ncc24)CCCCC(=O)NCCC2CCCN3C2)CC1 (single isomer, unassigned) [Compound 197a, 1^6-chloro-2^2-((1-((dimethylamino)methyl)cyclopropyl)methoxy)-2^8-fluoro-1^1H-6-aza-2(7,4)-quinazolina-1(4,5)-indazola-3(1,3)-piperidinacycloundecaphan-7-one]"
11,≤ 100,"O=C1CCCc2c(F)ccc3cccc(c23)-c2ncc3c(nc(OC[C@@]45CCCN4C[C@H](F)C5)nc3c2F)N2CCCC(CCN1)C2 (stereo partly drawn) [Compound 170a, 2^8,3^7-difluoro-2^2-(((2R,7aS)-2-fluorotetrahydro-1H-pyrrolizin-7a(5H)-yl)methoxy)-8-aza-2(4,7)-pyrido[4,3-d]pyrimidina-1(1,3)-piperidina-3(1,8)-naphthalenacyclodecaphan-7-one]"
12,100 to 1000,"Nc1cc2c3c(c(F)ccc3c1)CCCC(=O)NCCC1CCCN(C1)c1nc(OC[C@@]34CCCN3C[C@H](F)C4)nc3c(F)c-2ncc13 (stereo partly drawn) [Compound 189a, 3^3-amino-2^8,3^7-difluoro-2^2-(((2R,7aS)-2-fluorotetrahydro-1H-pyrrolizin-7a(5H)-yl)methoxy)-8-aza-2(4,7)-pyrido[4,3-d]pyrimidina-1(1,3)-piperidina-3(1,8)-naphthalenacyclodecaphan-7-one]"
13,1000 to 10000,"Nc1cc2c(c(C(F)(F)F)c1)CCCCC(=O)NCCC1CCCN(C1)c1nc(OC[C@@]34CCCN3C[C@H](F)C4)nc3c(F)c-2ncc13 (stereo partly drawn) [Compound 181a, 3^5-amino-2^8-fluoro-2^2-(((2R,7aS)-2-fluorotetrahydro-1H-pyrrolizin-7a(5H)-yl)methoxy)-3^3-(trifluoromethyl)-9-aza-2(4,7)-pyrido[4,3-d]pyrimidina-1(1,3)-piperidina-3(1,2)-benzenacycloundecaphan-8-one]"
14,≤ 100,"O=C1CCCCc2c(Cl)cc(O)cc2-c2ncc3c(nc(OC[C@@]45CCCN4C[C@H](F)C5)nc3c2F)N2CCCC(O)(CCN1)C2 (single isomer, unassigned) [Compound 140b]"
15,≤ 100,"O=C1CCCCc2c(Cl)cc3[nH]ncc3c2-c2ncc3c(nc(OC[C@@]45CCCN4C[C@H](F)C5)nc3c2F)N2CCOCC(CN1)C2 (stereo partly drawn) [Compound 203a, 3^6-chloro-2^8-fluoro-2^2-(((2R,7aS)-2-fluorotetrahydro-1H-pyrrolizin-7a(5H)-yl)methoxy)-3^1H-9-aza-1(4,6)-oxazepana-2(4,7)-pyrido[4,3-d]pyrimidina-3(4,5)-indazolacyclodecaphan-8-one]"
16,100 to 1000,"CN1CCC[C@H]1COc1nc2c3cnc(c(F)c3n1)-c1cc(N)cc(Cl)c1CCCCC(=O)NCCC1CCCN2C1 (stereo partly drawn) [Compound 171a, 3^5-amino-3^3-chloro-2^8-fluoro-2^2-(((S)-1-methylpyrrolidin-2-yl)methoxy)-9-aza-2(4,7)-pyrido[4,3-d]pyrimidina-1(1,3)-piperidina-3(1,2)-benzenacycloundecaphan-8-one]"
17,1000 to 10000,"Nc1cc2c(cc1F)CCCCC(=O)NCCC1CCCN(C1)c1nc(OC[C@@]34CCCN3C[C@H](F)C4)nc3c(F)c-2ncc13 (single isomer, unassigned) [Compound 159b]"
18,1000 to 10000,"Nc1cc(Cl)c2c(c1)-c1ncc3c(nc(OC[C@@]45CCCN4C[C@H](F)C5)nc3c1F)N1CCC(CCNC(=O)CCCC2)C1 (stereo partly drawn) [Compound 164a, 3^5-amino-3^3-chloro-2^8-fluoro-2^2-(((2R,7aS)-2-fluorotetrahydro-1H-pyrrolizin-7a(5H)-yl)methoxy)-9-aza-2(4,7)-pyrido[4,3-d]pyrimidina-1(1,3)-pyrrolidina-3(1,2)-benzenacycloundecaphan-8-one]"
